According to PubChem BioAssay AID256 (DTP/NCI, 2004):
Where “and” joins values, the source holds several entries; their conditions need not be identical. Equal entries are not always repeated. Toxic doses and inconclusive results are not listed. How the source made its calls: active means survival T/C of 150% or more; inactive means T/C below 125% in these data.

Tested on: CD2F1 mice, L1210 leukemia ip, survival T/C
Assay: NCI In Vivo Anticancer Drug Screen. Data for tumor model L1210 Leukemia (intraperitoneal) in CD2F1 (CDF1) mice
Details: endpoint: mean survival time, higher = longer survival
Summary of the method: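 Transplantable tumor in mice; compound-treated vs vehicle-treated groups. Read-out = treated/control ratio of the measured endpoint.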

[1] = dose: 100.0 mg/kg/injection, schedule: Q04DX003 (ip), vehicle: saline with Tween-80
[2] = dose: 200.0 mg/kg/injection, schedule: Q04DX003 (ip), vehicle: saline with Tween-80
[3] = dose: 400.0 mg/kg/injection, schedule: Q04DX003 (ip), vehicle: saline with Tween-80

Measured: T/C

O=[N+]([O-])c1ccc2nc3ccccc3cc2c1
inactive: [1] 92 % of control | [2] 92 % of control | [3] 91 % of control

O=C(O)c1c2c(nc3ccccc13)Cc1ccccc1-2
inactive: dose: 12.5 mg/kg/injection, schedule: Q01DX009 (ip), vehicle: water 104 % of control and 109 % of control | dose: 25.0 mg/kg/injection, schedule: Q01DX009 (ip), vehicle: water 103 % of control and 108 % of control | dose: 50.0 mg/kg/injection, schedule: Q01DX009 (ip), vehicle: saline with Tween-80 96 % of control | dose: 50.0 mg/kg/injection, schedule: Q01DX009 (ip), vehicle: water 105 % of control and 110 % of control | dose: 100.0 mg/kg/injection, schedule: Q01DX009 (ip), vehicle: saline with Tween-80 104 % of control | dose: 100.0 mg/kg/injection, schedule: Q01DX009 (ip), vehicle: water 100 % of control and 112 % of control | [1] 98 % of control | dose: 200.0 mg/kg/injection, schedule: Q01DX009 (ip), vehicle: saline with Tween-80 101 % of control | dose: 200.0 mg/kg/injection, schedule: Q01DX009 (ip), vehicle: water 114 % of control | [2] 104 % of control

CCOC(=O)Nc1cc(NCCCCc2ccccc2)c([N+](=O)[O-])c(N)n1
inactive: dose: 12.5 mg/kg/injection, schedule: Q01DX001 (ip), vehicle: Klucel (hydroxypropylcellulose) (HPC) 97 % of control | dose: 25.0 mg/kg/injection, schedule: Q01DX001 (ip), vehicle: Klucel (hydroxypropylcellulose) (HPC) 103 % of control | dose: 50.0 mg/kg/injection, schedule: Q01DX001 (ip), vehicle: Klucel (hydroxypropylcellulose) (HPC) 89 % of control

COC1OC(C2N(c3ccccc3)CCN2c2ccccc2)=CC(OC(C)=O)C1OC(C)=O (configuration not stated)
inactive: [1] 97 % of control | [2] 107 % of control | [3] 95 % of control

O=C(O)CCC1(CCC(=O)O)OCCO1.[Ag]
inactive: dose: 9.5 mg/kg/injection, schedule: Q01DX009 (ip), vehicle: saline sonified 92 % of control | dose: 18.75 mg/kg/injection, schedule: Q01DX009 (ip), vehicle: saline with Tween-80 92 % of control | dose: 19.0 mg/kg/injection, schedule: Q01DX009 (ip), vehicle: saline sonified 95 % of control | dose: 37.5 mg/kg/injection, schedule: Q01DX009 (ip), vehicle: saline with Tween-80 92 % of control | dose: 38.0 mg/kg/injection, schedule: Q01DX009 (ip), vehicle: saline sonified 95 % of control

CC(C)NC(=O)CCSCCC(=O)NC(C)C
inactive: dose: 25.0 mg/kg/injection, schedule: Q04DX002 (ip), vehicle: other 89 % of control | dose: 50.0 mg/kg/injection, schedule: Q04DX002 (ip), vehicle: other 93 % of control | dose: 100.0 mg/kg/injection, schedule: Q04DX002 (ip), vehicle: other 97 % of control | dose: 200.0 mg/kg/injection, schedule: Q04DX002 (ip), vehicle: other 89 % of control

COc1ccc(CN2CCCNCC2)cc1
inactive: dose: 12.5 mg/kg/injection, schedule: Q01DX005 (ip), vehicle: water 95 % of control | dose: 25.0 mg/kg/injection, schedule: Q01DX005 (ip), vehicle: water 95 % of control | dose: 50.0 mg/kg/injection, schedule: Q01DX005 (ip), vehicle: water 97 % of control | dose: 100.0 mg/kg/injection, schedule: Q01DX005 (ip), vehicle: water 101 % of control | dose: 200.0 mg/kg/injection, schedule: Q01DX005 (ip), vehicle: water 95 % of control

NC(=O)c1ccc([N+](=O)[O-])cc1Cl
inactive: dose: 100.0 mg/kg/injection, schedule: Q04DX002 (ip), vehicle: saline with Tween-80 102 % of control | dose: 200.0 mg/kg/injection, schedule: Q04DX002 (ip), vehicle: saline with Tween-80 94 % of control | dose: 400.0 mg/kg/injection, schedule: Q04DX002 (ip), vehicle: saline with Tween-80 94 % of control

COc1ccc2ccc[n+](C)c2c1
inactive: dose: 6.25 mg/kg/injection, schedule: Q01DX009 (ip), vehicle: saline 94 % of control | dose: 6.25 mg/kg/injection, schedule: Q04DX003 (ip), vehicle: saline with Tween-80 98 % of control | dose: 12.5 mg/kg/injection, schedule: Q01DX009 (ip), vehicle: saline 104 % of control | dose: 12.5 mg/kg/injection, schedule: Q04DX003 (ip), vehicle: saline with Tween-80 101 % of control | dose: 25.0 mg/kg/injection, schedule: Q01DX009 (ip), vehicle: saline 107 % of control | dose: 25.0 mg/kg/injection, schedule: Q04DX003 (ip), vehicle: saline with Tween-80 101 % of control
